The assay is described as follows: Inhibition of human recombinant sPLA2-V at 1 uM.

One molecule from BindingDB's records for PubMed 32485533 (Isf College of Pharmacy, 2020) can be followed below.

Turning to `COc1ccc(-c2nc3c(C(N)=O)cccc3[nH]2)cc1` [2-(4-methoxyphenyl)-1H-1,3-benzodiazole-4-carboxamide], the IC50 (commonly the concentration that inhibits the measured activity by half) is 3.22 µM.
